The source of these data is PMC7473772 (eLife, 2020).

Several values for one entry are separate records, joined by “and”; a condition that tells them apart may be missing. Equal values may be shown once. Where a name gives a salt, the structure may show the parent alone. Read-outs that look alike come from different tables or passages of the source.

The target of the experiment is TbAQP2/HAPT1 (Trypanosoma brucei brucei, UniProt Q6ZXT3). Description: cell-based. It counts as cell-based.
Where [1] appears, read: Gibbs free energy of binding to HAPT.
Setting [2] is: NI/NE with the concentration tested, read-out: HAPT Ki, AVG.

Chain of TbAQP2/HAPT1 (Q6ZXT3 whole entry): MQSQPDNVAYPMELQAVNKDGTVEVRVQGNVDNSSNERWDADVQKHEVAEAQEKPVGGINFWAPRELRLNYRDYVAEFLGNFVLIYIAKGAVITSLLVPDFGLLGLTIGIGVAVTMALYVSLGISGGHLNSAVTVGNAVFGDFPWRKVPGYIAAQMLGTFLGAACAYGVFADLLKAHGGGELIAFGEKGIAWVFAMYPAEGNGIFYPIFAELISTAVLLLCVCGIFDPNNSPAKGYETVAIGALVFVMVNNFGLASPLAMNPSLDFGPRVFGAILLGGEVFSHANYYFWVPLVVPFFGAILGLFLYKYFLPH

The Ki is the equilibrium dissociation constant of an inhibitor or competing ligand from its target. As to `N=C(N)c1ccc(O)cc1` [4-hydroxybenzamidine], the ΔG0 was -3.47 kcal/mol and the “δ(ΔG^0) PMD” value came to 6.72 kcal/mol. For the same molecule, where the note is “HAPT Ki, AVG”, the Ki came to 2890 µM. This molecule yielded an inhibitory constant (Ki) (Ki) of 2900 µM.
In the case of `N=C(N)c1ccc(OCCCCOc2ccc(C(=N)N)cc2)cc1` [Butamidine, 4,4’-(Butane-l ,4-diylbis(oxy))dibenzimiamide dihydrochloride dihydrate], the ΔG0 was -7.39 kcal/mol and the “δ(ΔG^0) PMD” value was 2.8 kcal/mol. The same molecule had a Ki (Ki) of 3.87 ± 1.38 µM.
As to `Cl.N=C(N)c1ccc(OCCCCOc2ccccc2)cc1.O` [CHI/1/69/1, 4-(4-Phenoxybutoxy)benzimidamide hydrochloride hydrate], the ΔG0 was -7.7 kcal/mol and the “δ(ΔG^0) PMD” value was found to be 2.49 kcal/mol. Moreover, the inhibitory constant (Ki) (Ki) was 2.33 µM and 2.3 µM.
As for `CON1CCN=C1Nc1ccc(CCc2ccc(NC3=NCCN3OC)cc2)cc1` [CRMI8], the ΔG0 is -5.83 kcal/mol and the “δ(ΔG^0) PMD” value was 4.33 kcal/mol. Under “Ki”, the affinity, expressed as Ki, was 52.8 ± 12.7 µM.
In turn, `N=C(N)c1ccc(OCCCOc2ccc(C(=N)N)cc2)cc1` [Chainlength 3] gave a Ki (Ki value, Mean) of 7.2 µM.
`N=C(N)c1ccc(OCCCCOc2ccc(C(=N)N)cc2)cc1` [Chainlength 4] yielded a Ki (Ki value, Mean) of 3.91 µM.
Same read-out and setting: for `N=C(N)c1ccc(OCCCCCOc2ccc(C(=N)N)cc2)cc1` [Chainlength 5] the value was 0.0364 µM; for `N=C(N)c1ccc(OCCCCCCOc2ccc(C(=N)N)cc2)cc1` [Chainlength 6], 0.059 µM; for `N=C(N)c1ccc(OCCCCCCCOc2ccc(C(=N)N)cc2)cc1` [Chainlength 7], 0.125 µM.
The same measure, in the same setting: the value for `N=C(N)c1ccc(OCCCCCCCCOc2ccc(C(=N)N)cc2)cc1` [Chainlength 8] was 2.2 µM.
Consider `N=C(N)c1ccc(-c2cc3ccc(C(=N)N)cc3[nH]2)cc1` [DAPI], for which the ΔG0 is -6.24 kcal/mol and the “δ(ΔG0)” value is 3.92 kcal/mol. The inhibitory constant (Ki) (read-out: HAPT Ki, AVG) stood at 26.4 µM.
On to `Cn1c(-c2ccc(C(=N)N)cc2)ccc1-c1ccc(C(=N)N)cc1` [DB320], for which the ΔG0 is -5.66 kcal/mol and the “δ(ΔG^0) PMD” value is 4.52 kcal/mol. Also, the inhibition constant Ki (Ki) was found to be 71.3 ± 12.1 µM.
The matching figures for `COc1ccc(-c2ccc(-c3ccc(C(=N)N)cc3)o2)cc1` [DB607, 4-(5-(4-methoxyphenyl)furan-2-yl) benzimidamide hydrochloride]: -6.48 kcal/mol, 3.7 kcal/mol and 18.1 ± 1.9 µM.
The corresponding values for `N=C(N)Nc1ccc(-c2ccc(-c3ccc(NC(=N)N)cc3)s2)cc1` [DB686] are -8.91 kcal/mol, 1.24 kcal/mol and 0.29 ± 0.11 µM.
With `N=C(N)c1ccc(-c2ccc(-c3ccc(C(=N)N)cn3)o2)cc1` [DB820], under setting [1], the ΔG0 was -5.95 kcal/mol. Besides, the Ki under setting [2] came to 43.4 µM. Also, the “δ(ΔG0)” value (relative to pentamidine (0)) is 4.23 kcal/mol.
`N=C(N)c1ccc(-c2ccc(-c3ccc(C(=N)N)cn3)o2)nc1` [DB829]: the ΔG0 was -6 kcal/mol and the “δ(ΔG^0) PMD” value came to 4.16 kcal/mol. This molecule came in with an inhibitory constant (Ki) (Ki) of 39.9 ± 8 µM.
With `N=C(N)c1ccc(-c2ccc(-c3ccc(-c4ccc(C(=N)N)cc4)o3)o2)cc1` [DB914], the ΔG0 is -9.73 kcal/mol and the “δ(ΔG^0) PMD” value stood at 0.43 kcal/mol. For the setting “Ki”, the Ki amounted to 0.073 ± 0.013 µM.
In the case of `Cn1c(-c2ccc(-c3ccc(C(=N)N)cc3)o2)nc2ccccc21` [DB960, 4-(5-(1-methyl-1H-benzo[d]imidazol-2-yl)furan-2-yl) benzimidamide dihydrochloride], the ΔG0 was -6.52 kcal/mol and the “δ(ΔG^0) PMD” value turned out to be 3.66 kcal/mol. The Ki (Ki) was 16.6 ± 3.5 µM.
The corresponding values for `N=C(N)c1ccc(-c2ccc(-c3ccc(C(=N)N)nc3)o2)cn1` [DB994] are -5.16 kcal/mol, 5.02 kcal/mol and 167 ± 20 µM.
For the molecule `N=C(N)CCc1ccc(-c2ccc(-c3ccc(CCC(=N)N)cc3)o2)cc1` [DB1061, 3,3'-(furan-2,5-diylbis (4,1-phenylene)) dipropanimidamide dihydrochloride], the ΔG0 is -6.12 kcal/mol and the “δ(ΔG^0) PMD” value was determined as 4.04 kcal/mol. Under “Ki”, affinity was put at a Ki of 32.3 ± 6 µM.
The corresponding values for `Cl.Cl.c1cc(-c2ccc(-c3ccc(CCC4=NCCN4)cc3)o2)ccc1CCC1=NCCN1` [DB1062, 2,5-bis(4-(2-(4,5-dihydro-1H-imidazol-2-yl)ethyl)phenyl) furan dihydrochloride] are -5.76 kcal/mol, 4.4 kcal/mol and 59.6 ± 11.2 µM.
With `N=C(N)CCc1ccc(-c2ccc(-c3ccc(CCC(=N)N)cc3)s2)cc1` [DB1063, 3,3'-(thiophene-2,5-diylbis(4,1-phenylene)) dipropanimidamide dihydrochloride], the ΔG0 was -8.72 kcal/mol and the “δ(ΔG^0) PMD” value came out at 1.43 kcal/mol. Where the note is “Ki”, this molecule had a Ki of 0.4 ± 0.1 µM.
In the case of `N=C(N)c1ccc(-c2csc(-c3ccc(C(=N)N)cc3)c2)cc1` [DB1077, 4,4'-(thiophene-2,4-diyl) dibenzimidamide dihydrochloride], the ΔG0 was -6.62 kcal/mol and the “δ(ΔG^0) PMD” value came to 3.54 kcal/mol. For the same molecule, the affinity (Ki), expressed as Ki, was 13.8 ± 3.1 µM.
The corresponding values for `N=C(N)c1ccc(OCCOCCOc2ccc(C(=N)N)cc2)cc1` [DB1699] are -6.52 kcal/mol, 3.66 kcal/mol and 16.6 ± 2.1 µM.
The corresponding values for `N=C(N)c1ccc(-c2csc(-c3ccc(C(=N)N)cc3)n2)cc1` [ER1004, 4,4'-(thiazole-2,4-diyl)dibenzimidamide] are -5.69 kcal/mol, 4.49 kcal/mol and 68.7 ± 16 µM.
For `Cl.Cl.N=C(N)c1ccc(OCCOc2ccc(C(=N)N)cc2)cc1.O.O` [Ethamidine, 4,4'-(ethane-1,2-diylbis(oxy))dibenzimidamide dihydrochloride dihydrate], the “δ(ΔG0)” value is above 4.71 kcal/mol and the “δ(ΔG^0) PMD” value is above 4.71 kcal/mol. In addition, for the setting “Ki”, the Ki was above 100 µM.
Take `c1cc(NC2=NCCN2)ccc1CCc1ccc(NC2=NCCN2)cc1` [FR39]: the ΔG0 was -5.98 kcal/mol and the “δ(ΔG^0) PMD” value came to 4.21 kcal/mol. Under “Ki”, this molecule registered an inhibition constant Ki of 41.7 ± 15.2 µM.
The matching figures for `N=C(N)c1ccc(OCCCCCCCOc2ccc(C(=N)N)cc2)cc1` [Heptamidine]: -9.42 kcal/mol, 0.741 kcal/mol and 0.123 ± 0.01 µM.
The corresponding values for `N=C(N)c1ccc(OCCCCCCOc2ccc(C(=N)N)cc2)cc1` [Hexamidine] are -9.87 kcal/mol, 0.311 kcal/mol and 0.058 ± 0.011 µM.
Take `N=C(N)c1cccc(OCCCCCOc2cccc(C(=N)N)c2)c1` [Meta-pentamidine RT40]: the ΔG0 was -5.71 kcal/mol and the “δ(ΔG0)” value was 4.45 kcal/mol. The molecule further came in with a Ki (HAPT Ki, AVG) of 64.2 µM.
Turning to `N=C(N)c1ccc(OCCCCCCCCOc2ccc(C(=N)N)cc2)cc1` [Octamidine], the ΔG0 is -7.72 kcal/mol and the “δ(ΔG^0) PMD” value came out at 2.44 kcal/mol. The same molecule yielded an inhibition constant (Ki) (Ki) of 2.16 ± 0.48 µM.
As for `O=C(CCc1ccc(O)cc1)c1c(O)cc(O)cc1O` [Phloretin], the ΔG0 is -7.84 kcal/mol and the “δ(ΔG0)” value turned out to be 2.32 kcal/mol. In addition, the Ki (Ki) is 1.76 µM.
`Cl.Cl.N=C(N)c1ccc(OCCCOc2ccc(C(=N)N)cc2)cc1.O.O` [Propamidine, 4,4’-(propane-1,3-diylbis(oxy))dibenzimidamide dihydrochloride dihydrate]: the ΔG0 was -7.07 kcal/mol and the “δ(ΔG^0) PMD” value is 3.11 kcal/mol. The molecule further registered an inhibition constant Ki (Ki) of 6.63 ± 1.4 µM.
For the molecule `N=C(N)c1ccc(OCCCOc2ccc(C(=O)O)cc2)cc1` [RT-38], the “HAPT Ki, AVG” value is recorded as “NI, 100” and the “δ(ΔG^0) PMD” value was above 4.71 kcal/mol. Further, under “Ki”, the Ki is above 100 µM.
As to `N=C(N)c1ccc(OCCCCCOc2ccc(C(=N)N)cc2C(N)=O)c(C(N)=O)c1` [RT-46], the Ki entry is “no affinity at all” and the “δ(ΔG^0) PMD” value is above 4.71 kcal/mol. Where the note is “Ki”, this molecule showed a Ki above 100 µM.
In the case of `N=C(N)c1ccc(S(=O)(=O)CCCCCS(=O)(=O)c2ccc(C(=N)N)cc2)cc1` [RT-49], the inhibition constant (Ki) entry was “no binding affinity”, the “δ(ΔG0)” value was above 4.95 kcal/mol and the “δ(ΔG^0) PMD” value was above 4.95 kcal/mol. Under “Ki”, this molecule came in with a Ki above 150 µM.
Consider `N=C(N)c1ccc(OCCCCCOc2ccc(C(=N)N)nc2)cn1` [RT-53], for which the “HAPT Ki, AVG” value is reported as “NI, 250”; the inhibition constant (Ki) entry was “completely inactive”; the “δ(ΔG0)” value is above 5.26 kcal/mol; the “δ(ΔG^0) PMD” value was above 5.26 kcal/mol. Where the note is “Ki”, this molecule displayed an inhibitory constant (Ki) above 250 µM.
Take `N=C(N)c1ccc(/C=C/c2ccc(C(=N)N)cc2)cc1` [Stilbamidine]: the ΔG0 is -5.81 kcal/mol and the “δ(ΔG^0) PMD” value came to 4.37 kcal/mol. For the same molecule, under “HAPT Ki, AVG”, affinity was put at a Ki of 54.8 µM. The molecule further gave an inhibitory constant (Ki) (Ki) of 54.8 ± 3.2 µM.
In the case of `N=C(N)NCCCCCCCCCCN=C(N)N.O=S(=O)(O)O` [Synthalin sulphate], under setting [1], the ΔG0 is -4.88 kcal/mol. Further, under setting [2], the inhibition constant Ki turned out to be 270 µM. Also, the “δ(ΔG0)” value (relative to pentamidine (0)) came out at 5.31 kcal/mol.
For `COc1cc(/C=C/C(=O)CC(=O)/C=C/c2ccc(O)c(OC)c2)ccc1O` [curcumin], the inhibition constant (Ki) result is “failed to inhibit”, the ΔG0 is -4.64 kcal/mol and the “δ(ΔG0)” value worked out at 5.54 kcal/mol. The molecule also displayed a Ki (HAPT Ki, AVG) of 398 µM.
In the case of `Cn1c([N+](=O)[O-])cnc1-c1nnc(N)s1` [megazol], the “HAPT Ki, AVG” value is recorded as “NE, 250” and the Ki entry is listed as “failed to inhibit”.
Consider `O=c1ccc2[n+]([O-])c3ccc(O)cc3oc-2c1` [resazurin], for which the ΔG0 is -5.19 kcal/mol and the “δ(ΔG0)” value came out at 4.97 kcal/mol. For the setting “HAPT Ki, AVG”, this molecule registered a Ki of 155 µM.
